This is an account of results in US20050054726A1, “Vaccine” (priority 2001, published 2005).

One assay relates to IL-4 producing cells. The assay is described as follows: ELISPOT of IL-4 (Th2) producing CD4+ T cells from lymph nodes. It is filed as in vivo, mice. The following applies: combination of 1400W with pVAC1.OVA vs pVAC1.OVA + vehicle; FIG. 2. Here is the method:
(§1) Twenty four hours later, minipumps containing 1400W (delivering 10 mg/kg per hour), or sterile water (controls), were implanted subcutaneously into mice under anaesthesia. Mice were then immediately immunised by PMID with two cartridges of either pVAC1.0VA or empty vector (1 μg plasmid DNA/mouse).
(§2) Five days later, mice were killed by cervical dislocation and inguinal and periaortic lymph nodes were collected and prepared as for splenocytes (described above), except that the red blood cell lysis step was omitted. To measure the in vivo clonal expansion of CD4+ T cells induced by immunisation, the proportion of ovalbumin-specific T cells was assessed ex vivo in the lymph node cell preparations. Briefly, an aliquot of lymph node cells from each individual mouse was processed for flow cytometry analysis (Coulter XL) using KJ1.26 (0.2 μg, Caltag) and anti-CD4 (0.5 μg, Sigma).
(§3) Th CD4+ subsets were assessed by ELISPOT analyses of CD4+ T cells producing IFN-γ (Th1) and IL-4 (Th2). Briefly, lymph node cell suspension was aliquoted into ELISPOT plates previously coated with capture IFN-γ or IL-4 antibody and stimulated with ovalbumin cognate peptide.

The test system of the next assay is CD8+ T cells. As to the kind of experiment: CD8+ T cell-restricted IFN-γ / IL-2 ELISPOT assay of splenocytes after prime-boost PMID. The class given is in vivo, C57B1/6 mice. Here is the method:
Controls contained pVAC1 (0.5 μg plasmid DNA/cartridge) only.
Spleens were collected 12 days later for T cell assays.
The cytotoxic T cell response was assessed by CD8+ T cell-restricted IFN-γ ELISPOT assay of splenocytes. Mice were killed by cervical dislocation and spleens were collected into ice-cold PBS. […] After two washes in PBS to remove particulate matter the single cell suspension was aliquoted into ELISPOT plates previously coated with capture IFN-γ or IL-2 antibody and stimulated with CD8-restricted cognate peptide. After overnight culture, IFN-γ producing cells were visualised by application of anti-murine IFN-γ-biotin labelled antibody (Pharmingen) followed by streptavidin-conjugated alkaline phosphatase and quantitated using image analysis.

For assay [1], the system named is ovalbumin-specific CD4+ T cells. The assay is described as follows: In vivo clonal expansion of ovalbumin-specific CD4+ T cells after PMID immunisation (adoptive transfer model, flow cytometry KJ1+ CD4+). Further details: species or system mice. Here is the method:
as §1, §2

A further assay deals with IFN-γ producing cells. The assay is described as follows: ELISPOT of IFN-γ (Th1) producing CD4+ T cells from lymph nodes. The class given is in vivo, mice. The following applies: combination pVAC1.OVA + 1400W; FIG. 3. Here is the method: as §1, §2, §3
The target in another assay is iNOS (Homo sapiens, UniProt P35228). The following applies: category per Alderton et al., Biochem J. (2001) 357, 593-615; cited from earlier work.

In the case of `CC(=N)NCc1cccc(CN)c1` [1400W, N-[3-(aminomethyl)benzyl] acetamidine], the “number of IL-4 producing cells” value in the assay with IL-4 producing cells was “no effect to a modest almost 2 fold increase”. The “number of IFN-γ- or IL-2-producing CD8+ T cells in the spleens” value with CD8+ T cells (control plasmid (pVAC1) + 1400W vs vehicle) is “No differences”; in the assay on CD8+ T cells (pVAC1.OVAcyt + 1400W relative to pVAC1.OVAcyt + vehicle, 12 days after boost, FIG. 4) it was “twice”. For the same compound, the “clonal expansion of CD4+ T cells” value in assay [1] (empty vector + 1400W vs empty vector + vehicle) is “No difference”; in assay [1] (pVAC1.OVA + 1400W (minipump, 10 mg/kg per hour) vs pVAC1.OVA + vehicle, lymph nodes, five days after PMID, Figure one), “substantial increase”. Besides, the “increase in number of IFN-γ producing cells” value with IFN-γ producing cells is listed as 2-4 times.
For the compound `CC(=N)NCCCC[C@H](N)C(=O)O` [L-NIL, reference compound], the “selectivity category of iNOS inhibitor” value at iNOS is “partially selective (Inhibitors which have a 10-50-fold selectivity are regarded as partially selective inhibitors)”.
Turning to `CC(=N)NCCSCC[C@H](N)C(=O)O` [GW274150, S-[2-(1-iminoethylamino)ethyl]-L-homocysteine], the “selectivity category of iNOS inhibitor” value at iNOS is recorded as “highly selective (compounds of over 50-fold selectivity are regarded as highly selective)”.
